Consider five molecules from patent publication US20240325531A1, “CAR T/NK-CELLS FOR USE IN THE TREATMENT OF INVASIVE FUNGAL INFECTIONS” (UNIVERSITAT DE BARCELONA, priority 2021, published 2024).

Experiment [1] relates to acute panmyelosis with myelofibrosis. Kind of experiment: Patient's earlier treatment of relapsed haematological disease. The experiment is classed as in vivo, human. The conditions noted are these: venetoclax plus azacytidine, after the first two cycles, one patient.
Experiment [2] concerns Fusarium petroliphilum. Kind of experiment: Antifungal resistance tests (MIC) on the patient's mold. The format is cell-based. The settings on record: Fusarium petroliphilum from the patient's skin biopsy; no clinical breakpoints established; read-out: minimum inhibitory concentrations (MIC). On the procedure:
The patient was admitted to the hospital for fever, muscle pain, and polytopic erythematous plaques/nodules on the trunk and extremities, some of them with central pustules. […] Blood cultures were negative. Galactomannan and β-D-glucan were negative. […] Bronchoscopy was performed but all results were negative.

Experiment [3] concerns Fusarium petroliphilum. Kind of experiment: Treatment of a patient with fusariosis (compassionate, first-in-human use). The format is in vivo. The settings on record: one patient; liposomal amphotericin-B, terbinafine and voriconazole given together, before cell therapy.
Procedure: Since admission, liposomal amphotericin-B was initiated and after fusariosis diagnosis, terbinafine and voriconazole were added.

Regarding `Nc1ncn([C@@H]2O[C@H](CO)[C@@H](O)[C@H]2O)c(=O)n1` [azacytidine], in experiment [1], the “response of haematological disease” value is on record as “partial response”. In the case of `C[C@@H](c1nc(-c2ccc(C#N)cc2)cs1)[C@](O)(Cn1cncn1)c1cc(F)ccc1F` [isavuconazole], the MIC with Fusarium petroliphilum [2] was above 8 µg/mL.

With `CC[C@@H]([C@H](C)O)n1ncn(-c2ccc(N3CCN(c4ccc(OC[C@@H]5CO[C@@](Cn6cncn6)(c6ccc(F)cc6F)C5)cc4)CC3)cc2)c1=O` [posaconazole], the MIC in the experiment with Fusarium petroliphilum [2] is above 8 µg/mL. As for `CN(C/C=C/C#CC(C)(C)C)Cc1cccc2ccccc12` [terbinafine], in the experiment with Fusarium petroliphilum [3], the “clinical course under antifungal drugs” value is “remained febrile, with appearance of new skin lesions and mild worsening of the chest CT images”. For the molecule `C[C@@H](c1ncncc1F)[C@](O)(Cn1cncn1)c1ccc(F)cc1F` [voriconazole], the MIC with Fusarium petroliphilum [2] was above 8 µg/mL. The “clinical course under antifungal drugs” value with Fusarium petroliphilum [3] was “remained febrile, with appearance of new skin lesions and mild worsening of the chest CT images”.
